# Reference: patent US7045661B2, “Crystalline forms of venlafaxine hydrochloride” (Ciba Specialty Chemicals Corporation, priority 2000, dated 2006)
# Assay: Relative thermodynamic stability of crystalline forms
# Type: physicochemical
# Details: compared with the previous known Form C
structure (smiles),measurement,value
"COc1ccc(C(CN(C)C)C2(O)CCCCC2)cc1.Cl (stereo not shown) [Form B, 1-[(2-dimethylamino)-1-(4-methoxyphenyl)ethyl]cyclohexanol hydrochloride]",thermodynamic stability,thermodynamically more stable than the previous known Form C
